Where “and” joins values, the source holds several entries; their conditions need not be identical. Equal entries are not always repeated.

This note sets out measurements from publication PMC11802874, “The hypolipidemic effect of MI-883, the combined CAR agonist/ PXR antagonist, in diet-induced hypercholesterolemia model” (Nature Communications, 2025).

For this data set, the target named is T1, human PXR (Homo sapiens, UniProt O75469).
T1 sequence (O75469 1-434): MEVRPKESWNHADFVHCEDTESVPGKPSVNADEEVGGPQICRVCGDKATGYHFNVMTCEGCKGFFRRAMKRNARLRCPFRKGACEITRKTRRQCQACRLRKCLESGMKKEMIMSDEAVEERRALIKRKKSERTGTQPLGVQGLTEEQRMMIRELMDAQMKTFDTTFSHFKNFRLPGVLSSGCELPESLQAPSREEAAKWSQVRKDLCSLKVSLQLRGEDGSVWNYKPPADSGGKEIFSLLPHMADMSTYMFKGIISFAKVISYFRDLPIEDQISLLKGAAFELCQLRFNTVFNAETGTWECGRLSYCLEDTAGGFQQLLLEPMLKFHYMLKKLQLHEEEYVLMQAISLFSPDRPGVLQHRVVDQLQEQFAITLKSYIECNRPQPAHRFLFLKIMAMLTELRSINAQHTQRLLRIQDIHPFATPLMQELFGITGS
The experiment in a line: PXR-dependent CYP3A4 reporter gene assay in H-P cells. The data set is classed as cell-based. Set-up: expressed in transfected cells; host or cells: H-P cells (HepG2 stably transfected with pcDhPXR). The protocol:
Luciferase reporter gene assays in PXR expressing H-P cells and mammalian two-hybrid reporter assays have been performed as described before[55],[57].
We also analyzed PXR-dependent CYP3A4 reporter gene assays in H-P cells, which represent HepG2 cells stably over-expressing human PXR, due to transfection of PXR expression plasmid pcDhPXR^5. […] 0.01 µg Metridia luciferase expression plasmid pMetLuc2control per well was included.

In the case of `NC(=O)c1cc(Cn2cc(-c3c(-c4ccc(Cl)cc4)nc4cc(F)ccn34)nn2)ccc1Cl` [MI-883, 2-chloro-5-((4-(2-(4-chlorophenyl)-7-fluoroimidazo[1,2-a]pyridin-3-yl)-1H-1,2,3-triazol-1-yl)methyl)benzamide], the “PXR-dependent CYP3A4 reporter activity in H-P cells, replicates” value (5 MI883 (µM not given), DMSO ~1) is 0.825 and 0.683 and 0.491; the “PXR-dependent CYP3A4 reporter activity in H-P cells, replicates” value (30 MI883) was 0.49 and 0.788 and 0.597; the “PXR-dependent CYP3A4 reporter activity in H-P cells, replicates” value (RIF + 5 MI883) is 10.8 and 10.1 and 9.53; the “PXR-dependent CYP3A4 reporter activity in H-P cells, replicates” value (RIF + 10 MI883) is 5.74 and 6.79 and 5.06; the “PXR-dependent CYP3A4 reporter activity in H-P cells, replicates” value (RIF + 30 MI883) is 1.18 and 2.43 and 2.32; the “PXR-dependent CYP3A4 reporter activity in H-P cells, replicates” value (single agent: RIF (10 µM), 10 MI883) is 0.606 and 0.813 and 0.535.
